Results on 12 compounds are retold here after patent US20230331710A1, “HETEROCYCLIC COMPOUND, PREPARATION METHOD AND USE THEREOF” (SHANGHAI MEIYUE BIOTECH DEVELOPMENT CO. LTD, priority 2020, published 2023).

For the assay, the target named is T1, complement factor B (Homo sapiens, UniProt P00751).
T1 construct: from tissue; host or cells: normal human serum from healthy volunteers
Description: Complement hemolytic activity assay (lysis of rabbit erythrocytes by normal human serum). The settings on record: normal human serum in GVB0 buffer with 10 mM Mg-EGTA, 37° C., A415. The assay is classed as cell-based. The procedure:
4. Complement Hemolytic Activity Assay
The hemolysis experiment was carried out by referring to the description in Xuan Yuan et al., Haematologica. […] Prior to the experiment, the optimal concentration of normal human serum (NHS) required to achieve 100% lysis of rabbit erythrocytes (REs) was obtained by titration testing. […] A GVB0 buffer containing 10 mM Mg-EGTA and containing NHS and RE but no test compound was used as a positive control group (100% lysis). A GVB0 buffer containing 10 mM Mg-EGTA and containing inactivated NHS (heated at 56° C. for 30 min or at 65° C. for 5 min) and RE but no test compound was used as a negative control group (0% lysis). The samples were centrifuged at 2000 g for 5 min, and the supernatant was collected. Absorbance at 415 nm (A415) was measured using a microplate reader (Molecular Devices, SpectraMax i3X). IC50 values were calculated from percent hemolysis as a function of test compound concentration by non-linear regression.

Bounds are passed on as bounds.

T1 sequence (P00751 26-764): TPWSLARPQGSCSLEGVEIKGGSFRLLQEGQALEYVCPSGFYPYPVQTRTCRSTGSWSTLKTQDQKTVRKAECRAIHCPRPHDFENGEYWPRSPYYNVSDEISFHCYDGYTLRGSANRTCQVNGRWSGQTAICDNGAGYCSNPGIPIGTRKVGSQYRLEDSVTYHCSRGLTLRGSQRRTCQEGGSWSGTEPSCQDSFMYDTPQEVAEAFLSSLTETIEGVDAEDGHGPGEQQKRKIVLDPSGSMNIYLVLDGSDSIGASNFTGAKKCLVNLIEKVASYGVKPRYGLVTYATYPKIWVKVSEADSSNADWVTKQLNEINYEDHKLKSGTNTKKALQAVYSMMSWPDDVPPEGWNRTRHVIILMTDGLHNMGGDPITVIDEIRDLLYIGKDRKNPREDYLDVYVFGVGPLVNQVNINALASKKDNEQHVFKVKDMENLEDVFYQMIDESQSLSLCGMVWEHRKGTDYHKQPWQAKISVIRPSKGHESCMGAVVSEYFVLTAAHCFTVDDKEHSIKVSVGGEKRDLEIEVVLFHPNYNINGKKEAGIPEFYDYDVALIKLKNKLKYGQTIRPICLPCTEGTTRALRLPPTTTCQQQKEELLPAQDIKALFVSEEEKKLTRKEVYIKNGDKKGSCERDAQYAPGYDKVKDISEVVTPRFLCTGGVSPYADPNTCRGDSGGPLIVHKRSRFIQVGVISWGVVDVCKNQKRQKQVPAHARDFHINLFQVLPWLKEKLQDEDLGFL

On to `CCO[C@H]1CCN(Cc2c(OC)cc(C)c3[nH]nnc23)[C@H](c2ccc(C(=O)O)cc2)C1` [Example 6], for which the IC50 is > 5 µM. For `CCO[C@H]1CCN(Cc2c(OC)cc(C)c3c2CCC(=O)N3)[C@H](c2ccc(C(=O)O)cc2)C1` [Example 16] the value was > 5 µM. For `CCO[C@H]1CCN(Cc2c(C)cc(C)c3ccccc23)[C@H](c2ccc(C(=O)O)cc2)C1` [Example 15] the value was > 5 µM; for `CCO[C@H]1CCN(Cc2c(OC)cc(C)c3c2CCC3)[C@H](c2ccc(C(=O)O)cc2)C1` [Example 8], > 5 µM; for `CCO[C@H]1CCN(Cc2c(OC)cc(C)c3[nH]cnc23)[C@H](c2ccc(C(=O)O)cc2)C1` [Example 4], 0.9 µM. For `CCO[C@H]1CCN(Cc2c(OC)cc(C#N)c3[nH]ccc23)[C@H](c2ccc(C(=O)O)cc2)C1` [Example 12] the value was > 5 µM.

For the compound `CCO[C@H]1CCN(Cc2c(OC)cc(C(F)(F)F)c3[nH]ccc23)[C@H](c2ccc(C(=O)O)cc2)C1` [Example 11], the IC50 is > 5 µM. With `CCO[C@H]1CCN(Cc2c(OC)cc(C)c3ccccc23)[C@H](c2ccc(C(=O)O)cc2)C1` [Example 14] the figure was > 5 µM; with `CCO[C@H]1CCN(Cc2c(OC)cc(C3CC3)c3[nH]ccc23)[C@H](c2ccc(C(=O)O)cc2)C1` [Example 13], 1 µM; with `CCO[C@H]1CCN(Cc2c(OC)cc(C)c3[nH]ncc23)[C@H](c2ccc(C(=O)O)cc2)C1` [Example 5], 1.2 µM. On to `CCO[C@H]1CCN(Cc2c(OC)cc(C)c3occc23)[C@H](c2ccc(C(=O)O)cc2)C1` [Example 10], for which the midpoint of inhibition, the IC50, lay at 1.3 µM. For `CCO[C@H]1CCN(Cc2c(OC)cc(C)c3c2CCN3)[C@H](c2ccc(C(=O)O)cc2)C1` [Example 1] the value was 1.5 µM.
